Results from patent US10265276B2, “Pharmaceutical composition for preventing or treating arthritis or inflammatory disease containing 2-methoxy-4-(3-(4-methoxyphenyl)propyl-1-en-1-yl)phenol as active ingredient” (CHUNGBUK NATIONAL UNIVERSITY INDUSTRY-ACADEMIC COOPERATION …, priority 2015, dated 2019).
Read-outs that look alike come from different tables or passages of the source.

Tests used:
STAT3 = assay: Effect of STAT3 siRNA or STAT3 inhibitor on the effect of MMPP in LPS-treated RAW 264.7 cells; type: cell-based, mouse; parameters: dose or concentration left out as unconfirmed
Protocol: 11. Luciferase activity assay: RAW264.7 cells added to a 24-well plate at a density of 1×10^5 cells/well. After 90% confluence, the cells were transiently infected with STAT3 siRNA (Santa Cruz Biotechnology) or a mutant STAT3 (T456A) plasmid using a mixture of STAT3 siRNA (Santa Cruz Biotechnology) or a mutant STAT3 (T456A) plasmid and WelFect-EX PLUS in OPTI-MEN. The infected cells were treated with LPS (1 μg/mL) and different concentrations of MMPP (1 to 4 μg/mL) for 12 hours. The luciferase activity was measured using a luciferase assay kit (Promega, Madison, Wis., USA).
First, a protective effect of MMPP on the LPS-induced pro-inflammatory response was tested using RAW 264.7 cells infected with STAT3 siRNA.
The RAW 264.7 cells were infected with STAT3 siRNA. After 24 hours, the infected cells were then treated with […] of LPS alone or in combination with MMPP. Thereafter, the NO generation, the iNOS and COX2 expression, and the DNA binding activity of NF-κB were measured.
Next, it was examined whether an effect of a STAT3 inhibitor in RAW 264.7 cells was limited. RAW 264.7 cells were treated with a STAT3 inhibitor […] alone or in combination with MMPP, and the NO generation, the iNOS and COX2 expression, and the DNA binding activity of NF-κB were also measured.

RAW 264.7 cells [1] = assay: Cell viability (MTT assay) in RAW 264.7 cells; type: cell-based, mouse; conditions: up to 4 mg/mL
Protocol: As mouse macrophages, RAW 264.7 macrophages were cultured in a DMEM medium supplemented with 10% FBS. […] of the medium was treated with MMPP, and then stabilized for an hour.
An MTT reagent was added at a concentration of 0.5 mg/mL, and the cells were cultured at 37° C. in an incubator. After the medium was completely removed when 70% of the cells formed crystals, […] of DMSO was added to dissolve the crystals. Subsequently, the optical density was measured at 550 nm.
Morphological changes of the cells were observed under a microscope, and the cell viability was determined using an MTT assay.

RAW 264.7 cells [2] = assay: Nitrite assay (NO generation) in LPS-induced RAW 264.7 cells; type: cell-based, mouse; conditions: LPS (1 µg/mL) and MMPP (0 to 4 µg/mL)
Protocol: 6. Nitrite assay: RAW 264.7 cells were added to a 96-well plate at a density of 1×10^4 cells/well, and LPS […] and TNF-α (10 ng/mL) were added or not added for 24 hours in the presence or absence of various concentrations of MMPP. Accumulation of nitrites in a supernatant was analyzed using a nitric oxide assay kit commercially available from iNtRON Biotechnology (Seongnam, Korea).
(§1) In Experimental Example 4, a luciferase activity assay was carried out to determine whether MMPP inhibited generation of LPS-induced infective factors in RAW 264.7 cells. RAW 264.7 cells were transiently infected with an iNOS-luciferase construct, treated with LPS (1 μg/mL) alone or a combination of MMPP and LPS, and then activated for 12 hours.

iNOS and COX-2 = assay: Western blotting of iNOS and COX-2 expression in LPS-induced RAW 264.7 cells; type: cell-based, mouse; parameters: dose or concentration left out as unconfirmed; conditions: LPS and MMPP
iNOS = assay: iNOS-luciferase activity assay in LPS-induced RAW 264.7 cells; type: cell-based, mouse; conditions: LPS (1 µg/mL) and MMPP (0 to 4 µg/mL)
Protocol: 9. Cell infection: RAW 264.7 cells (5×10^4 cells/well) were added to a 24-well plate, and transiently infected with a STAT3-luciferase reporter plasmid and an iNOS-luciferase reporter plasmid using a Lipofectamine PLUS and plasmid mixture in OPTI-MEN.
as §1

mutant STAT3 (T456A) = biological target: T1, mutant STAT3 (T456A) (Mus musculus, UniProt P42227, T456A); assay: Pull-down assay with mutant STAT3; type: binding; conditions: compared to the STAT3
T1 construct: A coding region of Mus musculus STAT3 was amplified by PCR using full-length Mus musculus STAT3 cDNA as a template; host or cells: RAW264.7
Text: As a method for isolating a protein complex, a pull-down assay is an assay for checking a protein-protein interaction. To identify a protein interacting with MMPP, MMPP was bound to […] epoxy-activated Sepharose 6B (Sigma, St Louis, Mo., United States).
2. Construction of plasmid: A coding region of Mus musculus STAT3 was amplified by PCR using full-length Mus musculus STAT3 cDNA as a template. The purified PCR product was doubly digested with EcoRI and XhoI, and then subcloned into a pcDNA3.1 vector. The pcDNA3.1 plasmid includes a cytomegalovirus promoter, a pUC origin of replication, and an ampicillin-resistant gene. STAT3 (T456A) mutagenesis was performed at Cosmo Genetech Co., Ltd. (Seoul, Korea), and the mutations were systematically checked by sequencing. RAW264.7 cells were seeded in a 24-well plate at a density of 1×10^5 cells/well. The cells were grown for 24 hours to reach 90% confluence, and the cells were infected with the mutant STAT3 (T456A) plasmid (Cosmo Genetech Co., Ltd., Seoul, Korea) using a mixture of the plasmid and lipofectamine in PTI-MEN. The infected cells were treated with LPS (1 μg/mL), and different concentrations of MMPP (1 to 4 μg/mL) for 12 hours. The prepared samples were subjected to Western blotting.
To check the interaction between MMPP and STAT3, a pull-down assay was carried out. MMPP was conjugated to epoxy-activated Sepharose 6B. […]

NF-κB and STAT3 = assay: EMSA and Western blotting of CAIA-induced ankle joint tissues; type: in vivo, mouse
Protocol: In addition, the DNA binding activities of NF-κB and STAT3 were determined by EMSA. The same amount of the total proteins (20 μg/Lane) was subjected to 10% SDS-PAGE, and STAT3, P-STAT3, p50, p65, IKK, 1 KB, and p-1lκB were detected through Western blotting. A β-actin protein or histone H was used as the control. As a result, it can be seen that MMPP inhibited the STAT3 DNA-binding activity (FIG. 12(A)), the NF-κB STAT3 DNA-binding activity (FIG. 12(B)), nuclear translocation of pSTAT3, p50 and p65, and phosphorylation of IkB, IKKb and IKKa in the CAIA-induced ankle joint tissues (FIGS. 12(C) and 12(D))

T1 sequence (P42227 whole entry T456A): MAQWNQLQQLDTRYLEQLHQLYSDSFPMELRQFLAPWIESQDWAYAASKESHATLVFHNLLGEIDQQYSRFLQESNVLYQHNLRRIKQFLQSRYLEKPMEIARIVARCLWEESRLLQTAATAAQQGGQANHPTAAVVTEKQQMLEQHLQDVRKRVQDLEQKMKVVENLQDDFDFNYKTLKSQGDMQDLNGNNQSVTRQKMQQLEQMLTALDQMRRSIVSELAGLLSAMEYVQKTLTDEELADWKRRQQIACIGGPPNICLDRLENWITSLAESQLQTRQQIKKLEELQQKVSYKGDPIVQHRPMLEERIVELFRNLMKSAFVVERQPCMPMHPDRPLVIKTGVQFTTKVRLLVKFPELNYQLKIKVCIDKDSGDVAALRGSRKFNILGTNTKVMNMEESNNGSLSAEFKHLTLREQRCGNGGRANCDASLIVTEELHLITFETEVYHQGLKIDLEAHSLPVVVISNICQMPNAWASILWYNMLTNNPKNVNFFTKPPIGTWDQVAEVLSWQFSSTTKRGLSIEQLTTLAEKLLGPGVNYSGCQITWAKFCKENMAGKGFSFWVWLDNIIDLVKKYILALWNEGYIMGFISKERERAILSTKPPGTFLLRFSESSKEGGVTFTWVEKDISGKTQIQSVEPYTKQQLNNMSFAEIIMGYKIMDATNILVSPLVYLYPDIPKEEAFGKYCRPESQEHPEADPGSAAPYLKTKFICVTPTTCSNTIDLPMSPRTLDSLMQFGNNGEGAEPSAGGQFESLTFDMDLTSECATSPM

## COc1ccc(C/C=C/c2ccc(O)c(OC)c2)cc1 [MMPP, 2-methoxy-4-(3-(4-methoxyphenyl)prop-1-en-1-yl)phenol]
STAT3
  inhibitory effect of MMPP on LPS-induced NO generation, iNOS and COX2 expression, and NF-κB activity: completely limited
STAT3; STAT3 knock-down cells (STAT3 siRNA)
  inhibitory effect of MMPP on LPS-induced NO generation, iNOS and COX2 expression, and NF-κB activity: limited
RAW 264.7 cells [1]; RAW 264.7 cells
  toxicity: no toxicity
RAW 264.7 cells [1]
  viability of the LPS-induced RAW 264.7 cells: not affected
RAW 264.7 cells [2]
  NO generation: reduced in a concentration-dependent manner
iNOS and COX-2
  iNOS and COX-2 expression: reduced in a concentration-dependent manner
iNOS
  iNOS luciferase activity: reduced in a concentration-dependent manner
Mutant STAT3 (T456A)
  binding of MMPP to mutant STAT3 Thr456A: reduced
NF-κB and STAT3
  NF-κB STAT3 DNA-binding activity: inhibited
  STAT3 DNA-binding activity: inhibited
  nuclear translocation of pSTAT3, p50 and p65: inhibited
  phosphorylation of IkB, IKKb and IKKa: inhibited
